The target of assay [1] is T1, tyrosinase (Agaricus bisporus, UniProt C7FF04).
T1 construct: purchased Sigma-Aldrich T3824
Particulars: cited from earlier work; for Mode of tyrosinase inhibition (literature): phlorotannins from seaweeds.

Assay [2] deals with T1, tyrosinase. Description: Tyrosinase assay (L-tyrosine substrate, product detected at 475 nm). The following applies: for inhibition at 100 µM: read-out: Inhibitory activity on tyrosinase at 100 μM (%); for Binding mode: Lineweaver–Burk and Dixon plots; for Ki: based on Dixon plots. In kind it is biochemical, mushroom. The protocol: Phlorotannins of E. cava and E. stolonifera were reported to have the inhibitory activity on mushroom tyrosinase. […] This study evaluated the ability of the isolated phlorotannins 1–7 to suppress the catalytic reaction of tyrosinase over time, in the absence or presence of inhibitor. […]. A commercial tyrosinase inhibitor was used as a positive control (kojic acid; […]. To identify potent inhibitors, the inhibitory activity of all of the isolated compounds at 100 μM was tested against tyrosinase in vitro (Table 1). Of these, compounds 2–5 were confirmed to have inhibitory activity exceeding 50%. Serial dilutions were used to calculate the IC50 values. The tyrosinase inhibitory activity increased in a dose-dependent fashion (Figure 2A). […]. To gain insight into the interaction of the enzyme with phlorotannins, as tyrosinase inhibitors, the products of the catalytic reaction were determined by ultraviolet-visible photometry after the inhibitor was added to the enzyme solution. The IC50 values of compounds 3 and 5 increased linearly with [S]/Km (Figure 2B). […]. Phlorotannins from seaweeds have been used to develop the non-competitive tyrosinase inhibitors 7-phloroeckol, dieckol, and phlorofucofuroeckol A, and the competitive inhibitors phloroglucinol and eckstolonol.
To evaluate inhibitory activity on tyrosinase with isolated compounds, 130 μL of tyrosinase in […] phosphate buffer (pH 6.8) was divided in 96 well plates. 20 μL of compound concentrations ranging from 1–0.015 mM was added. 50 μL of 1.5 mM L-tyrosine in phosphate buffer was diluted into the mixture for calculating the inhibitory activity. 50 μL of 10–0.62 mM L-tyrosine in buffer was added to analyze initial velocity (v0). After starting their reaction for 20 min, an amount of the product was detected at UV–vis 475 nm. […]

The target of assay [3] is T1, tyrosinase. The experiment in a line: Slow-binding inhibition analysis (progress curves). In kind it is biochemical, mushroom. Particulars: for Ki: apparent Ki from slow-binding analysis, read-out: kapp i; for Slow-binding mechanism: replot of kobs vs [I]. The protocol: To confirm time-dependent inhibition by the potential inhibitors (compounds 3 and 5), the substrate was added into a mixture of ligand (3.1 μM) that was preincubated with tyrosinase. Over time, their inhibitory activities increased. To calculate the slow-binding parameters (k3, k4, k5, k6, and kapp i), the progress curves were analyzed using equation (2), with increasing concentrations of compounds 3 and 5 (Figure 3C,D); a replot of kobs was obtained as [I] (Figure 3E,F). The replot of compound 3 was a straight line that fit equation (3). […] The two strongest inhibitors had different slow-binding mechanisms. Inhibitor 5, which has a higher molecular weight, induced a new conformational state of the enzyme.
The progress curves were calculated to Equation (2) by Morrison according to time course for 420 s. [P] = vst + [(v0 − vs)/kobs(1 − e^−kobst)](2) where t is time, [P] is product intensity, v0 and vs are the initial and steady-state reaction velocities, and kobs is the apparent first-order rate […]. kobs = k4 + k3[I](3) (4) Kiapp=k4/k3
This is a linear Equation (3) for slow-binding mechanism A. Kiapp is the apparent value of an inhibitor by Equation (4). Where [I] is inhibitor concentration. (5) kobs=k6+[(k5×[I])/(Kiapp+[I])
Equation (5) of hyperbola is for the calculation of rate constant in slow-binding mechanism B.

Where “and” joins values, the source holds several entries; their conditions need not be identical. Equal values may be shown once. Read-outs that look alike come from different tables or passages of the source.

T1 sequence (C7FF04 1-392 limits assumed): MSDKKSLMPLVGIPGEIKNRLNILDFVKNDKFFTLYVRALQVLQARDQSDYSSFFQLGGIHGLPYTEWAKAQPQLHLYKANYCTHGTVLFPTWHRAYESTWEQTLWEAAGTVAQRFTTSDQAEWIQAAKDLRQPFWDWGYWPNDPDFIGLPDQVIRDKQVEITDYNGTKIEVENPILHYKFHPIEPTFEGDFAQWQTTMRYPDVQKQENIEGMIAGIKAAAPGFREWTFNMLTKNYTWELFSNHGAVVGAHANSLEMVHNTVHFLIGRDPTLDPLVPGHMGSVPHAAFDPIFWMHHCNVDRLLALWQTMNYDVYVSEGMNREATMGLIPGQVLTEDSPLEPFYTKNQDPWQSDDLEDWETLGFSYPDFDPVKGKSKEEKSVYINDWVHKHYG

Take `Oc1cc(O)cc(Oc2c(O)cc(O)c3c2Oc2c(O)cc4oc5c(Oc6cc(O)cc(O)c6)c(O)cc(O)c5c4c2O3)c1` [Compound 4, phlorofucofuroeckol A]: the “Mode of tyrosinase inhibition (literature)” value (“Mode of tyrosinase inhibition” below) at tyrosinase [1] is reported as “non-competitive”. Besides, on tyrosinase [2] (IC50, triplicate), the IC50 is 66.4 ± 0.1 µM. Also, the inhibition at 100 µM at tyrosinase [2] (compound at 100 μM, triplicate) is 57.1 ± 3.3%.
With `Oc1cc(O)cc(Oc2c(O)cc(O)c3c2Oc2c(O)cc(O)cc2O3)c1` [Compound 2, eckol], the “Binding mode (reported)” value on tyrosinase [1] was “Reported as non-competitive ^d”. At tyrosinase [2] (IC50, triplicate), this molecule returned an IC50 of 13.5 ± 0.1 µM. Besides, at tyrosinase [2] (compound at 100 μM, triplicate), the inhibition at 100 µM turned out to be 86 ± 4.7%.
Turning to `Oc1cc(O)cc(Oc2c(O)cc(O)c3c2Oc2c(cc(O)c(-c4c(O)cc5c(c4O)Oc4c(Oc6cc(O)cc(O)c6)c(O)cc(O)c4O5)c2O)O3)c1` [Compound 7, 8,8′-bieckol], the inhibition at 100 µM at tyrosinase [2] worked out at 43.3 ± 1.5%.
For the molecule `Oc1cc(O)cc(Oc2c(O)cc(O)c3c2Oc2c(cc(O)c(-c4c(O)cc(O)c5c4Oc4c(O)cc(O)c(Oc6cc(O)cc(O)c6)c4O5)c2O)O3)c1` [Compound 6, 6,8′-bieckol], at tyrosinase [2] (compound at 100 μM, triplicate), the inhibition at 100 µM was determined as 41.2 ± 4.3%.
For the molecule `Oc1cc(O)cc(Oc2c(Oc3c(O)cc(O)cc3O)cc(O)c3c2Oc2c(O)cc(O)cc2O3)c1` [Compound 3, 2-phloroeckol], on tyrosinase [3], the Ki turned out to be 6.5 µM and the Slow-binding mechanism entry was “a single-step binding mechanism”. On tyrosinase [3] (slow-binding mechanism A), this molecule showed a K3 of 0.0002 mM/s and a k4 of 0.0013 s⁻¹. On tyrosinase [2], the Binding mode result was “Competitive” and the Ki was determined as 8.2 µM. For the same molecule, the inhibition at 100 µM on tyrosinase [2] (compound at 100 μM, triplicate) was 94.7 ± 1.4%. Moreover, the half-maximal inhibitory concentration (IC50) on tyrosinase [2] (triplicate, read-out: IC50) is < 10 µM and 7 µM.
Consider `Oc1cc(O)cc(Oc2c(O)cc(O)c3c2Oc2c(O)cc(O)c(-c4c(O)cc(O)c5c4Oc4c(O)cc(Oc6c(O)cc(O)cc6O)c(Oc6cc(O)cc(O)c6)c4O5)c2O3)c1` [Compound 5, 2-O-(2,4,6-trihydroxyphenyl)-6,6′-bieckol], for which, on tyrosinase [3], the Ki is 4.4 µM and the Slow-binding mechanism entry is recorded as “a two-step binding mechanism”. At tyrosinase [3] (slow-binding mechanism B), this molecule came in with a K5 of 0.0047 s⁻¹ and a K6 of 0.0003 s⁻¹. At tyrosinase [2], the Binding mode entry is “Competitive” and the Ki turned out to be 5.8 µM. Besides, the inhibition at 100 µM at tyrosinase [2] (compound at 100 μM, triplicate) is 86.9 ± 0.9%. The IC50 on tyrosinase [2] (triplicate, read-out: IC50) is < 10 µM and 8.8 µM.
For `Oc1cc(O)cc(O)c1` [phloroglucinol], the “Mode of tyrosinase inhibition” value on tyrosinase [1] is recorded as “competitive”.
As for `Oc1cc(O)cc(Oc2c(O)cc(O)c3c2Oc2c(O)cc(Oc4c(O)cc(Oc5c(O)cc(O)c6c5Oc5c(O)cc(O)cc5O6)cc4O)cc2O3)c1` [dieckol], at tyrosinase [1], the “Mode of tyrosinase inhibition” value is on record as “non-competitive”.
In the case of triphlorethol A [Compound 1], the “Inhibitory activity on tyrosinase at 100 μM (%)” value at tyrosinase [2] (compound at 100 μM, triplicate) is 26.7 ± 1.0%.
As for `Oc1cc(O)cc(Oc2c(O)cc(O)c3c2Oc2c(O)cc(Oc4c(O)cc(O)cc4O)cc2O3)c1` [7-phloroeckol], on tyrosinase [1], the “Mode of tyrosinase inhibition” value is reported as “non-competitive”.
As to eckstolonol, at tyrosinase [1], the “Mode of tyrosinase inhibition” value is given as “competitive”.

The values are drawn from PMC6627058, “Slow-Binding Inhibition of Tyrosinase by Ecklonia cava Phlorotannins” (Marine Drugs, 2019).
